Source: PubChem BioAssay AID1918954 (Molecular Pharmacology Branch, DTP, NCI, 2023)

Test system: MDA-MB-468 complex spheroids with HUVEC/MSC, viability
Experiment: Anticancer human tumor MDA-MB-468 cell line growth inhibition;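 note: spheroids exposed to agents for seven days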;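 for viability, T/C: 100% = DMSO vehicle control viability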
Settings: for IC50: curve of first compound; for viability, T/C: stronger effect = lower value
Procedure, shortened: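 Drug combinations with the LSD1 inhibitor iadademstat tested on tumor cells co-cultured as spheroids with endothelial cells and mesenchymal stem cells. Concentrations descended in half-log increments from clinical Cmax or 10 microM.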

[1] = second compound 0.1 µM, first compound 0.00316 µM
[2] = second compound 0.1 µM, first compound 0.01 µM
[3] = second compound 0.1 µM, first compound 0.0316 µM
[4] = second compound 0.1 µM, first compound 0.1 µM
[5] = second compound 0.1 µM, first compound 0.316 µM
[6] = second compound 0.1 µM, first compound 1 µM
[7] = second compound 0.316 µM, first compound 0.00316 µM
[8] = second compound 0.316 µM, first compound 0.01 µM
[9] = second compound 0.316 µM, first compound 0.0316 µM
[10] = second compound 0.316 µM, first compound 0.1 µM
[11] = second compound 0.316 µM, first compound 0.316 µM
[12] = second compound 0.316 µM, first compound 1 µM
[13] = second compound 1 µM, first compound 0.00316 µM
[14] = second compound 1 µM, first compound 0.01 µM
[15] = second compound 1 µM, first compound 0.0316 µM
[16] = second compound 1 µM, first compound 0.1 µM
[17] = second compound 1 µM, first compound 0.316 µM
[18] = second compound 1 µM, first compound 1 µM
[19] = second compound 3.16 µM, first compound 0.00316 µM
[20] = second compound 3.16 µM, first compound 0.01 µM
[21] = second compound 3.16 µM, first compound 0.0316 µM
[22] = second compound 3.16 µM, first compound 0.1 µM
[23] = second compound 3.16 µM, first compound 0.316 µM
[24] = second compound 3.16 µM, first compound 1 µM
[25] = second compound 10 µM, first compound 0.00316 µM
[26] = second compound 10 µM, first compound 0.01 µM
[27] = second compound 10 µM, first compound 0.0316 µM
[28] = second compound 10 µM, first compound 0.1 µM
[29] = second compound 10 µM, first compound 0.316 µM
[30] = second compound 10 µM, first compound 1 µM

Compound: O=C(C=Cn1cnc(-c2cc(C(F)(F)F)cc(C(F)(F)F)c2)n1)NNc1cnccn1 + NC1CC1c1ccc(-c2cccc(O)c2)cc1
- IC50 (second compound 0.1 µM): < 3.16 nM
- IC50 (second compound 0.316 µM): < 3.16 nM
- IC50 (second compound 1 µM): < 3.16 nM
- IC50 (second compound 3.16 µM): < 3.16 nM
- IC50 (second compound 10 µM): < 3.16 nM
- viability, T/C [1]: 38.1%
- viability, T/C [2]: 30.3%
- viability, T/C [3]: 20.7%
- viability, T/C [4]: 3.44%
- viability, T/C [5]: 1.7%
- viability, T/C [6]: 0.86%
- viability, T/C [7]: 36.9%
- viability, T/C [8]: 31%
- viability, T/C [9]: 19.6%
- viability, T/C [10]: 3.54%
- viability, T/C [11]: 1.34%
- viability, T/C [12]: 0.96%
- viability, T/C [13]: 38.5%
- viability, T/C [14]: 28.9%
- viability, T/C [15]: 18.1%
- viability, T/C [16]: 3.32%
- viability, T/C [17]: 1.45%
- viability, T/C [18]: 0.94%
- viability, T/C [19]: 33.8%
- viability, T/C [20]: 34.2%
- viability, T/C [21]: 19.7%
- viability, T/C [22]: 3.27%
- viability, T/C [23]: 1.83%
- viability, T/C [24]: 1.13%
- viability, T/C [25]: 31%
- viability, T/C [26]: 28.9%
- viability, T/C [27]: 18.3%
- viability, T/C [28]: 4.7%
- viability, T/C [29]: 2.04%
- viability, T/C [30]: 1.62%

Compound: COc1cc(C2c3cc4c(cc3C(OC3OC5COC(C)OC5C(O)C3O)C3COC(=O)C23)OCO4)cc(OC)c1O (stereo not given) + NC1CCC(NC2CC2c2ccccc2)CC1
- IC50 (second compound 0.1 µM): 99.2 nM
- IC50 (second compound 0.316 µM): 93.1 nM
- IC50 (second compound 1 µM): 89.2 nM
- IC50 (second compound 3.16 µM): 76.6 nM
- IC50 (second compound 10 µM): 52.6 nM
- viability, T/C (second compound 0.1 µM, first compound 0.00949 µM): 83.6%
- viability, T/C (second compound 0.1 µM, first compound 0.03 µM): 91.3%
- viability, T/C (second compound 0.1 µM, first compound 0.0949 µM): 51.6%
- viability, T/C (second compound 0.1 µM, first compound 0.3 µM): 13.8%
- viability, T/C (second compound 0.1 µM, first compound 0.949 µM): 10.8%
- viability, T/C (second compound 0.1 µM, first compound 3 µM): 8.8%
- viability, T/C (second compound 0.316 µM, first compound 0.00949 µM): 82.6%
- viability, T/C (second compound 0.316 µM, first compound 0.03 µM): 72.3%
- viability, T/C (second compound 0.316 µM, first compound 0.0949 µM): 51.2%
- viability, T/C (second compound 0.316 µM, first compound 0.3 µM): 14.3%
- viability, T/C (second compound 0.316 µM, first compound 0.949 µM): 12.5%
- viability, T/C (second compound 0.316 µM, first compound 3 µM): 9.23%
- viability, T/C (second compound 1 µM, first compound 0.00949 µM): 90.7%
- viability, T/C (second compound 1 µM, first compound 0.03 µM): 77.2%
- viability, T/C (second compound 1 µM, first compound 0.0949 µM): 50.8%
- viability, T/C (second compound 1 µM, first compound 0.3 µM): 13.8%
- viability, T/C (second compound 1 µM, first compound 0.949 µM): 12.8%
- viability, T/C (second compound 1 µM, first compound 3 µM): 8.57%
- viability, T/C (second compound 3.16 µM, first compound 0.00949 µM): 67.6%
- viability, T/C (second compound 3.16 µM, first compound 0.03 µM): 68.2%
- viability, T/C (second compound 3.16 µM, first compound 0.0949 µM): 45.9%
- viability, T/C (second compound 3.16 µM, first compound 0.3 µM): 15.5%
- viability, T/C (second compound 3.16 µM, first compound 0.949 µM): 15.3%
- viability, T/C (second compound 3.16 µM, first compound 3 µM): 8.59%
- viability, T/C (second compound 10 µM, first compound 0.00949 µM): 55.5%
- viability, T/C (second compound 10 µM, first compound 0.03 µM): 64.5%
- viability, T/C (second compound 10 µM, first compound 0.0949 µM): 39.5%
- viability, T/C (second compound 10 µM, first compound 0.3 µM): 17.1%
- viability, T/C (second compound 10 µM, first compound 0.949 µM): 17.2%
- viability, T/C (second compound 10 µM, first compound 3 µM): 11%

Compound: Nc1ncn(C2CC(O)C(CO)O2)c(=O)n1 (stereo not given) + NC1CCC(NC2CC2c2ccccc2)CC1
- IC50 (second compound 0.1 µM): 14.2 nM
- IC50 (second compound 0.316 µM): 9.71 nM
- IC50 (second compound 1 µM): 12.3 nM
- IC50 (second compound 3.16 µM): 11.6 nM
- IC50 (second compound 10 µM): 5.55 nM
- viability, T/C [1]: 88.4%
- viability, T/C [2]: 59.4%
- viability, T/C [3]: 28.7%
- viability, T/C [4]: 14.2%
- viability, T/C [5]: 9.84%
- viability, T/C [6]: 8.86%
- viability, T/C [7]: 84.6%
- viability, T/C [8]: 48.6%
- viability, T/C [9]: 28.1%
- viability, T/C [10]: 15.6%
- viability, T/C [11]: 9.97%
- viability, T/C [12]: 10.2%
- viability, T/C [13]: 83%
- viability, T/C [14]: 54.9%
- viability, T/C [15]: 27.5%
- viability, T/C [16]: 15.4%
- viability, T/C [17]: 11.1%
- viability, T/C [18]: 10.6%
- viability, T/C [19]: 67.7%
- viability, T/C [20]: 53.4%
- viability, T/C [21]: 28.2%
- viability, T/C [22]: 15.5%
- viability, T/C [23]: 11.3%
- viability, T/C [24]: 9.32%
- viability, T/C [25]: 57.4%
- viability, T/C [26]: 42.2%
- viability, T/C [27]: 24.4%
- viability, T/C [28]: 14.4%
- viability, T/C [29]: 10.6%
- viability, T/C [30]: 10.1%
